Data from patent publication US5077037A, “Novel compositions for magnetic resonance imaging” (Mallinckrodt Medical, Inc., priority 1990, dated 1991).

Key:
[1] = relaxivity rates (Bruker NMR MiniSpec, 20 MHz, 40° C.); type: physicochemical
[2] = tested on: mouse; assay: mouse i.v. LD50 (acute toxicity); type: in vivo; conditions: 0.5M solution, confidence limit of 14.3-18.4 mmol/kg
[3] = sterile water for injection (SWFI)

## O=C([O-])CN(CCN(CC(=O)[O-])CC(=O)NCC1CCCO1)CCN(CC(=O)[O-])CC(=O)NCC1CCCO1.[Gd+3] (centres unmarked) [Example 2]
[1]; 4% human serum albumin (HSA)
  relaxivity rate T1: 4.8 mmol⁻¹ s⁻¹
  relaxivity rate T2: 4.8 mmol⁻¹ s⁻¹
[1]; [3]
  relaxivity rate T1: 4.4 mmol⁻¹ s⁻¹
  relaxivity rate T2: 5.6 mmol⁻¹ s⁻¹
[2]
  LD50 value: 16.2 mmol/kg
